Drawing on patent publication US11028083B2, “Ethanediamine-heterocycle derivatives as inhibitors of protein arginine methyltransferases” (Board of Regents, The University of Texas System, priority 2018, dated 2021), this text covers IC50 for six compounds.

As a reminder, the IC50 is the concentration that gives 50% inhibition.

SMILES strings stand for the structures.

In assay [1] the target is Full-length human GST-PRMT4 (Homo sapiens (Human), UniProt Q86X55). The assay can be described thus: PRMT4 RapidFire Mass Spectrometry Selectivity Assay (SAH production). The assay is classed as biochemical. Particulars: Rapid fire enzyme assay; 0.5 μM SAM, 15 nM Histone H3.3; read-out: PRMT-4 IC50. From the text:
Full-length human GST-PRMT4 (SignalChem, catalog#P365-380DG) was expressed by baculovirus in Sf9 insect cells.

In a further assay the target is PRMT1 (Homo sapiens (Human), UniProt Q99873). The assay can be described thus: PRMT1 Enzymatic Assay (LANCE TR-FRET, methylation of histone H4 at Arg3). The assay is classed as biochemical. Particulars: PRMT-1 Enzymatic Assay; 1 μM SAM, 25 nM biotinylated histone H4 (1-21). As for the experimental part: In order to measure PRMT1 enzymatic activity the LANCE TR-FRET assay from PerkinElmer was used to follow the methylation of histone H4 at Arg3 using S-adenosyl-L-methionine (SAM) as the methyl group donor.
Sequence of PRMT1 (Q99873 whole entry): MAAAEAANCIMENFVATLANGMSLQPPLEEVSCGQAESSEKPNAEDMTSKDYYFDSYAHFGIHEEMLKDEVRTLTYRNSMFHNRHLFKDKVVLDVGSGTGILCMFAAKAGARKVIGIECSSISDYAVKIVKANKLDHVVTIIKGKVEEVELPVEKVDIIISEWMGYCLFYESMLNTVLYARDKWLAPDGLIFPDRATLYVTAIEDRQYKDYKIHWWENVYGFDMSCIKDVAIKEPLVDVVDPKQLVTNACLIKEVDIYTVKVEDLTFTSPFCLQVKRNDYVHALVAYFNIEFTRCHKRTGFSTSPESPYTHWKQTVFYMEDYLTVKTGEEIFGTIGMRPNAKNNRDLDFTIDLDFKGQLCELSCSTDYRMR
Final concentrations of PRMT1, SAM, and histone H4 (1-21) refer to a 10 μL volume.
Detection of methylated histone H4 (H4R3me) was achieved by combining LANCE Ultra Europium-anti-H4R3me antibody (PerkinElmer, Catalog #TRF04-14), LANCE Ultra ULight-anti-streptavidin antibody (PerkinElmer, Catalog #TRF0102), and sinefungin (Sigma, Catalog #S8559) (final concentrations 2 nM, 50 nM, and 100 μM respectively) in 1×LANCE detection buffer (PerkinElmer, Catalog #CR97-100) and adding 10 μL/well of the detection solution to the assay plate. Detection reagents were allowed to react for 1 hour at room temperature. Final concentrations in the detection solution refer to a 20 μL volume.
On the technique in general: In TR-FRET formats the signal depends on donor and acceptor labels being close together.

In the next assay the target is PRMT1 in RKO cells (Homo sapiens (Human), UniProt Q99873). Description: PRMT1 RKO Cellular Target Engagement Assay (In-Cell Western, asymmetric di-methyl arginine). It counts as cell-based. Particulars: PRMT-1 Target Engagement, 48 hr compound incubation.
Sequence of PRMT1 in RKO cells (Q99873 whole entry): as above
Assay [2] has as its target Full-length human PRMT1 (1-361) (Homo sapiens, UniProt Q99873). The assay can be described thus: PRMT1 RapidFire Mass Spectrometry Selectivity Assay (SAH production). It counts as biochemical. To be noted: Rapid fire enzyme assay; 1 μM SAM, 50 nM histone H4 (1-21); read-out: PRMT-1 IC50.
In assay [3] the target is Full-length human PRMT6 (1-375) (Homo sapiens (Human), UniProt Q96LA8). The assay can be described thus: PRMT6 RapidFire Mass Spectrometry Selectivity Assay (SAH production). To be noted: read-out: PRMT-6 IC50; Rapid fire enzyme assay; 3 μM SAM, 250 nM Histone H4 (36-50) K44 MeI.
Sequence of Full-length human PRMT6 (1-375) (Q96LA8 whole entry): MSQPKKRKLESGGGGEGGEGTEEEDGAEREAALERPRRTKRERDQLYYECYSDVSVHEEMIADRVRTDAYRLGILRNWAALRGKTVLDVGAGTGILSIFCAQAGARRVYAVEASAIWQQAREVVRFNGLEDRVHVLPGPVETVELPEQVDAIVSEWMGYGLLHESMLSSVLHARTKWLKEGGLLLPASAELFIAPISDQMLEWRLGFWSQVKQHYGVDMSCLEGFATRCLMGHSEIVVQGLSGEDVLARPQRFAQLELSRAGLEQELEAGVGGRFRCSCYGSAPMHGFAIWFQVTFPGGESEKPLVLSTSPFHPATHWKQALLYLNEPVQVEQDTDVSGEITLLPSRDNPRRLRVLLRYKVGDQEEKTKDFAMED
Method: The PRMT6 assay was performed by dispensing 6 uL/well (final concentration of 10 nM) of PRMT6 protein diluted in assay buffer to the plate. Stock solutions of the test compounds were prepared in 100% DMSO (Sigma, Catalog #D2650) and serially diluted 1:3 using 100% DMSO. Compounds were additionally diluted 1:50 in assay buffer, and 6 μL/well were transferred to the assay plate. Plates were allowed to incubate for 15 min at room temperature.
RapidFire buffer A contained H2O and buffer B was 80% acetonitrile/H2O. […] SAH peaks were integrated using RapidFire peak software and IC50 values were calculated using a four-parameter logistic curve fit using Genedata Screener software.

Sequence of Full-length human GST-PRMT4 (Q86X55 whole entry): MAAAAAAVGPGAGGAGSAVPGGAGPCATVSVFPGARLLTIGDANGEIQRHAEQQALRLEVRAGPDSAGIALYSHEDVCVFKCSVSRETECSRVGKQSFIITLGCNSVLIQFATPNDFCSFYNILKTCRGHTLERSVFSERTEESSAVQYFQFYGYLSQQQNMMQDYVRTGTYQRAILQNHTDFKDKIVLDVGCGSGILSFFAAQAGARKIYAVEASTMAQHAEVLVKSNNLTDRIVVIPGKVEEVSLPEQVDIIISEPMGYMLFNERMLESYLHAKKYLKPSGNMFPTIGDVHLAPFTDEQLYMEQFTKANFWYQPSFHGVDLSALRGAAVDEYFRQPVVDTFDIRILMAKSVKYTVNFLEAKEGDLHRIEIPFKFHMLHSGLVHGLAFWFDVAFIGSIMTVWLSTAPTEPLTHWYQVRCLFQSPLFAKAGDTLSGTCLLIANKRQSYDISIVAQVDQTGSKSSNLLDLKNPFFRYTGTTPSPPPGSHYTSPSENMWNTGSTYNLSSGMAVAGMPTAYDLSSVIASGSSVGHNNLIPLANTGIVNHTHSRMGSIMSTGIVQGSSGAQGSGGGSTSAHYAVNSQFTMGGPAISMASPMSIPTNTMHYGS
Method for PRMT1 in RKO cells: In preparation for the In-Cell Western assay, cells were harvested and resuspended in EMEM media supplemented with 10% fetal bovine serum. […] The culture plate was incubated for 24 hr at 37° C. with 5% CO2 and ambient O2. […] The primary antibody was then removed, and the plate was washed three times with 1×PBST. […] The plate was then incubated in the dark, at room temperature for 1 hour followed by three washes with 1×PBST and one wash with H2O. The IRDye secondary antibody signal (800 channel) and the CellTag signal (700 channel) were measured using a Licor Odyssey Imager, and the 800 channel signal was then normalized to the 700 channel signal. IC50 values were calculated using a four-parameter logistic curve fit using Genedata Screener software.

In the case of `CCOCC1(COCC)CCC(c2c(CN(C)CCNC)nn3c2CCC3)CC1` [Example 2, N^1-((3-(4,4-bis(ethoxymethyl)cyclohexyl)-5,6-dihydro-4H-pyrrolo[1,2-b]pyrazol-2-yl)methyl)-N^1, N^2-dimethylethane-1,2-diamine], the IC50 in assay [1] worked out at 79 nM.
Same read-out and setting: then `CNCCN(C)Cc1nn2c(c1C1CCC(C)(C)CC1)CCC2` [Example 51, N^1-((3-(4,4-dimethylcyclohexyl)-5,6-dihydro-4H-pyrrolo[1,2-b]pyrazol-2-yl)methyl)-N^1,N^2-dimethylethane-1,2-diamine], with 337 nM; and `CNCCN(C)Cc1nn2c(c1C1CCCCC1)CCCC2` [Example 21, N^1-((3-cyclohexyl-4,5,6,7-tetrahydropyrazolo[1,5-a]pyridin-2-yl)methyl)-N^1,N^2-dimethylethane-1,2-diamine], with 1120 nM.
In the case of `CCOCC1(COCC)CCC(c2c(CNCCN)nn3c2CC(F)(F)C3)CC1` [Example 92, N^1-((3-(4,4-bis(ethoxymethyl)cyclohexyl)-5,5-difluoro-5,6-dihydro-4H-pyrrolo[1,2-b]pyrazol-2-yl)methyl)ethane-1,2-diamine], the IC50 against PRMT1 is 73 nM.
For the compound `CNCCN(C)Cc1nn2c(c1C1CCCCC1)CCC2` [Example 11, N^1-((3-cyclohexyl-5,6-dihydro-4H-pyrrolo[1,2-b]pyrazol-2-yl)methyl)-N^1,N^2-dimethylethane-1,2-diamine], the IC50 on PRMT1 is 44 nM; against PRMT1 in RKO cells, 14000 nM; in assay [2] it was 93 nM; in assay [1], 654 nM; in assay [3], 99 nM.
Take `CNCCN(C)Cc1nn2c(c1C1CCC3(CCCC3)CC1)CCC2` [Example 49, N^1,N^2-dimethyl-N^1-((3-(spiro[4.5]decan-8-yl)-5,6-dihydro-4H-pyrrolo[1,2-b]pyrazol-2-yl)methyl)ethane-1,2-diamine]: the IC50 in assay [1] turned out to be 114 nM.
